Measured values taken from ChEMBL document CHEMBL5465560, “Selectivity Literature for EUbOPEN Chemogenomic Library” (2024).

What was measured:
[1] = biological target: Ribosomal protein S6 kinase alpha-6 (Homo sapiens, UniProt Q9UK32); test: Selectivity interaction (KinomeScan (DiscoverX)) EUB0000229b RPS6KA6; conditions: at 10 µM
[2] = biological target: T1, Ribosomal protein S6 kinase alpha-3 (Homo sapiens, UniProt P51812); test: Selectivity interaction (KinomeScan (DiscoverX)) EUB0000229b RPS6KA3; conditions: at 10 µM
T1 sequence (P51812 whole entry): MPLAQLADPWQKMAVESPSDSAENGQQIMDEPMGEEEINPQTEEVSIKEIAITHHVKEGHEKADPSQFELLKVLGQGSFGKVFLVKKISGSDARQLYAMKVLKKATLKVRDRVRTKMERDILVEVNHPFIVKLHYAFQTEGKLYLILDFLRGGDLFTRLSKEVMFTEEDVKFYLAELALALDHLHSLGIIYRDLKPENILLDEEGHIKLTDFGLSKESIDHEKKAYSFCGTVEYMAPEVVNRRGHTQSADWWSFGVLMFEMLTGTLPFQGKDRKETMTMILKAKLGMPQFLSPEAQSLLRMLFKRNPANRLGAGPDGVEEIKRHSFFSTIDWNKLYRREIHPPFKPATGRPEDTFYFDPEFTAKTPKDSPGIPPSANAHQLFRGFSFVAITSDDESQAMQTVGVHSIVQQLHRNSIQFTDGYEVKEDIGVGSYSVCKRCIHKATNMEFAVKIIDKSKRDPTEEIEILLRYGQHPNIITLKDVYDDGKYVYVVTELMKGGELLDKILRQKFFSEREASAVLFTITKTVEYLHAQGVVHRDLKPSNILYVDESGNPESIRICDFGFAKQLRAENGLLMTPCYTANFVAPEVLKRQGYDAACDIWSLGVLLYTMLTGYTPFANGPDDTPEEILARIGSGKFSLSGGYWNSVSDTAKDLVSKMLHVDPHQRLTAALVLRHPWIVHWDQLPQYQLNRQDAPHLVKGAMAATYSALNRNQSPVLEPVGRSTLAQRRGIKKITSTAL

[3] = biological target: Delta-type opioid receptor (Homo sapiens, UniProt P41143); test: Selectivity interaction (GPCR panel (PDSP screen)) EUB0001079a OPRD1; conditions: at 10 µM
Chain of Delta-type opioid receptor (P41143 whole entry): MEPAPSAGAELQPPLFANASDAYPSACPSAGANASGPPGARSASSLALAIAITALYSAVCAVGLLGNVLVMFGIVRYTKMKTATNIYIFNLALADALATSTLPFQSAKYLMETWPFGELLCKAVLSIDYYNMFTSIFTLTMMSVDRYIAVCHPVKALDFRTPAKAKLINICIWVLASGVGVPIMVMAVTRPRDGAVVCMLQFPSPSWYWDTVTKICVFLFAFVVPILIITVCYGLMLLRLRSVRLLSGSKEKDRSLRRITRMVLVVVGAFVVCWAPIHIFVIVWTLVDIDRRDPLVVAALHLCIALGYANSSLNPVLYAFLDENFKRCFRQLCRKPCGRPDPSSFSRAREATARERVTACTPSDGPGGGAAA

[4] = biological target: T2, Aurora kinase A (Homo sapiens) (UniProt O14965); conditions: at 10 µM
T2 sequence (whole entry): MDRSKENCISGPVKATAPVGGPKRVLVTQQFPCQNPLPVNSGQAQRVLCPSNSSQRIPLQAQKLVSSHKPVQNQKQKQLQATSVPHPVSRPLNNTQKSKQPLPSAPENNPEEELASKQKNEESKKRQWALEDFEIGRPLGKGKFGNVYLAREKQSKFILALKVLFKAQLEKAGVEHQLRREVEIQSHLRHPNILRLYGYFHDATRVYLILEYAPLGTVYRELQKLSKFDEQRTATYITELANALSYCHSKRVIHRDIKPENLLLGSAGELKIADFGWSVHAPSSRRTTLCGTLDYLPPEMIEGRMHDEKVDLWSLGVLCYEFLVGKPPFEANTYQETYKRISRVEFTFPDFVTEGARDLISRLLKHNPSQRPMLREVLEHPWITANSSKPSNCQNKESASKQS

[5] = biological target: T3, Peripheral plasma membrane protein CASK (Homo sapiens) (UniProt O14936); test: Selectivity interaction (KinomeScan (DiscoverX)) EUB0001049a CASK; conditions: at 1 µM
T3 sequence (whole entry): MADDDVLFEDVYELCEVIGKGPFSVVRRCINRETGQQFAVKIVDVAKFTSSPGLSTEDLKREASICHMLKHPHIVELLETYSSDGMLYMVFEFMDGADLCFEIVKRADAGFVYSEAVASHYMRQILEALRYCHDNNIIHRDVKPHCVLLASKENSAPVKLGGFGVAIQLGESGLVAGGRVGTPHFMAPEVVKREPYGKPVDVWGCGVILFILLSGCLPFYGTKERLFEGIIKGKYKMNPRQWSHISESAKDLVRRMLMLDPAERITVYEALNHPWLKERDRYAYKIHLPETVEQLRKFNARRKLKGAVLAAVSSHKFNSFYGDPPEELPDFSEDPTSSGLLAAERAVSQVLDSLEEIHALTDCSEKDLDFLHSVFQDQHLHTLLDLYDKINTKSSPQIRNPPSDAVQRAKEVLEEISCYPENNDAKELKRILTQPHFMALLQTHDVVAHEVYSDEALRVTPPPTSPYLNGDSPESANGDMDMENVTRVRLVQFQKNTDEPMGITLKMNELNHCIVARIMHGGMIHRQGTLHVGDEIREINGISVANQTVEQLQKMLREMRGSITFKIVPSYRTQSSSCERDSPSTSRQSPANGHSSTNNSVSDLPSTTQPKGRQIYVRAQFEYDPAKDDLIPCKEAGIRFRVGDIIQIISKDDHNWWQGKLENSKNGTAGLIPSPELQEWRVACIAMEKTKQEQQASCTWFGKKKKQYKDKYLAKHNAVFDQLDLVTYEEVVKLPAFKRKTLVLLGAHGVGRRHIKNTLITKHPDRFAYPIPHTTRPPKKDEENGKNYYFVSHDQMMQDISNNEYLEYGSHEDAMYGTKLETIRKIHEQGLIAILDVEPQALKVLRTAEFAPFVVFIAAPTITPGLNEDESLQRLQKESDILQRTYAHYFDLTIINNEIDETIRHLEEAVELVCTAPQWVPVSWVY

[6] = biological target: G protein-coupled receptor kinase 5 (Homo sapiens, UniProt P34947); test: Selectivity interaction (Upstate Kinase Profiler service (Millipore)) EUB0000056c GRK5; conditions: at 1 µM
Chain of G protein-coupled receptor kinase 5 (P34947 whole entry, looked up): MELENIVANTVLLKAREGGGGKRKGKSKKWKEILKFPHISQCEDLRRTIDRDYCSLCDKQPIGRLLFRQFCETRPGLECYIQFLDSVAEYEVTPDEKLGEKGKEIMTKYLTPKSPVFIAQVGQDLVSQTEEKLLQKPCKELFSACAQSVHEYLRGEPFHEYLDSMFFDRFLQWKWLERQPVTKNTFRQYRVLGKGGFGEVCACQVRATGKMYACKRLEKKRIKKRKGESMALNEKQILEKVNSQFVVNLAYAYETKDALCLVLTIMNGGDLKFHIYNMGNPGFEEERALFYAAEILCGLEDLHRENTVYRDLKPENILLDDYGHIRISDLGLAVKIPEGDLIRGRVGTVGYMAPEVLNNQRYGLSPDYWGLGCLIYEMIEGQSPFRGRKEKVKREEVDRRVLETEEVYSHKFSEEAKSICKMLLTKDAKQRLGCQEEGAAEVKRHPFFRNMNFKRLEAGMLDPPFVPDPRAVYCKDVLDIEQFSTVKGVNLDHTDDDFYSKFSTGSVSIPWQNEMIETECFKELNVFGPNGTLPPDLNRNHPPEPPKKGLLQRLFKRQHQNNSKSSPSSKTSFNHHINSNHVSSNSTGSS

[7] = biological target: T4, Serine/threonine-protein kinase Sgk2 (Homo sapiens) (UniProt Q9HBY8); test: Selectivity interaction (Upstate Kinase Profiler service (Millipore)) EUB0000056c SGK2; conditions: at 1 µM
T4 sequence (whole entry): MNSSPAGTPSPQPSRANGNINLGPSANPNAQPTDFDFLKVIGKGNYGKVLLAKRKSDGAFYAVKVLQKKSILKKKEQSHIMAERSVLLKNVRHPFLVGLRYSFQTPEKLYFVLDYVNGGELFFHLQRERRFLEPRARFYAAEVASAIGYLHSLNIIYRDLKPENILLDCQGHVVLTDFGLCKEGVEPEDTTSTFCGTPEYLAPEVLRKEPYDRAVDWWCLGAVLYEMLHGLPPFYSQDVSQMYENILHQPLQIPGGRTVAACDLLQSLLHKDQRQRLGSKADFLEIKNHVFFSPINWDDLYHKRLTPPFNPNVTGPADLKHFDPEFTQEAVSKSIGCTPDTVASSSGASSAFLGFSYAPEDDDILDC

[8] = biological target: Calcium/calmodulin-dependent protein kinase type II subunit delta (Homo sapiens) (UniProt Q13557); test: Selectivity interaction (KinomeScan (DiscoverX)) EUB0001619a CAMK2D; conditions: at 1 µM
Chain of Calcium/calmodulin-dependent protein kinase type II subunit delta (Homo sapiens) (Q13557 whole entry): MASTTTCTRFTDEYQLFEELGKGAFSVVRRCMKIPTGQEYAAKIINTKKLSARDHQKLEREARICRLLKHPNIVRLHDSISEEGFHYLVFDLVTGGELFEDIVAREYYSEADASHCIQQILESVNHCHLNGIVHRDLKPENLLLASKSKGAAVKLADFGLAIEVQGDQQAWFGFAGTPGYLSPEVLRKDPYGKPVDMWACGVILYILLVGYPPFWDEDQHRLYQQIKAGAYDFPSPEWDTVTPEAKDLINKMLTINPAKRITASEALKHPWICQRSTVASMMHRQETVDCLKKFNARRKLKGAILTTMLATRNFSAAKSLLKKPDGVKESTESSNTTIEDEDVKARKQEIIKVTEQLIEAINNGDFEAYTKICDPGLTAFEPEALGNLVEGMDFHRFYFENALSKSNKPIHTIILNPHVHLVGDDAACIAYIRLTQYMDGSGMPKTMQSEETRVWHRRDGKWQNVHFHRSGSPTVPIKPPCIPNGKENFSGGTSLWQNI

Insulin receptor = Insulin receptor (Homo sapiens, UniProt P06213); conditions: at 3 µM
[9] = biological target: T1, Ribosomal protein S6 kinase alpha-3; test: Selectivity interaction (ActivX KiNativ screen (kinase selectivity in THP-1 cell lysates)) EUB0000639a RPS6KA3; assay type: subcellular; conditions: lysate, at 0.01 µM
[10] = biological target: Tyrosine-protein kinase JAK1 (Homo sapiens, UniProt P23458); conditions: at 10 µM
Chain of Tyrosine-protein kinase JAK1 (P23458 whole entry): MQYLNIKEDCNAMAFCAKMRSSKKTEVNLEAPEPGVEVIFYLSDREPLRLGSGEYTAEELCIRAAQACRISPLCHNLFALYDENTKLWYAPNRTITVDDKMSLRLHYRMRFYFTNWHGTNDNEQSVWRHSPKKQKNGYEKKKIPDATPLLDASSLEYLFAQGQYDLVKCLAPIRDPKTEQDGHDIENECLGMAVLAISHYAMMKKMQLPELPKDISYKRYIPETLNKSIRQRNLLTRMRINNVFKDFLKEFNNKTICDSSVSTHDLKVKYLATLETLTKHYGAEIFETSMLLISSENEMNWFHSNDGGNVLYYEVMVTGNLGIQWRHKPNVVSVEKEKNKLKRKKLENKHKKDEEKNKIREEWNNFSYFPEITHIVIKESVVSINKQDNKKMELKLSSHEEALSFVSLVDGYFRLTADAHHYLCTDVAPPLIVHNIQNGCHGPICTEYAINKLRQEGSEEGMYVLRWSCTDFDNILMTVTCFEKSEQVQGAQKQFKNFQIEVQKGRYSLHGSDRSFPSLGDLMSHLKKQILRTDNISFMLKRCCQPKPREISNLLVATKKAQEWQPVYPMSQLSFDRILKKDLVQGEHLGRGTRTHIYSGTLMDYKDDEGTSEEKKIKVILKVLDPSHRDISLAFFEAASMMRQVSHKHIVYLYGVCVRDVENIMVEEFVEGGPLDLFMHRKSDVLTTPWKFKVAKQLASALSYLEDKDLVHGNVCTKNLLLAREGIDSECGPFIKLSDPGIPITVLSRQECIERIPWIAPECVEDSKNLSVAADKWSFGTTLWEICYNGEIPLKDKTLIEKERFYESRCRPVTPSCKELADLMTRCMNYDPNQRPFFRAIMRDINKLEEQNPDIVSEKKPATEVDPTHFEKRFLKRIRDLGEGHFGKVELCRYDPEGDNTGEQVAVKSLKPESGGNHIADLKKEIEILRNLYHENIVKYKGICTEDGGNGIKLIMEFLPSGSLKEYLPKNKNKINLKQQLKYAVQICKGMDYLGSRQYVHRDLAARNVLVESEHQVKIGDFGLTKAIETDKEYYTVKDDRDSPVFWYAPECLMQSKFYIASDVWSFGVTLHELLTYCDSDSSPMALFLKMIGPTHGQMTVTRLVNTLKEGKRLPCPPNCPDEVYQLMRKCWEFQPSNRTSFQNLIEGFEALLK

Chain of Ribosomal protein S6 kinase alpha-6 (Q9UK32 whole entry): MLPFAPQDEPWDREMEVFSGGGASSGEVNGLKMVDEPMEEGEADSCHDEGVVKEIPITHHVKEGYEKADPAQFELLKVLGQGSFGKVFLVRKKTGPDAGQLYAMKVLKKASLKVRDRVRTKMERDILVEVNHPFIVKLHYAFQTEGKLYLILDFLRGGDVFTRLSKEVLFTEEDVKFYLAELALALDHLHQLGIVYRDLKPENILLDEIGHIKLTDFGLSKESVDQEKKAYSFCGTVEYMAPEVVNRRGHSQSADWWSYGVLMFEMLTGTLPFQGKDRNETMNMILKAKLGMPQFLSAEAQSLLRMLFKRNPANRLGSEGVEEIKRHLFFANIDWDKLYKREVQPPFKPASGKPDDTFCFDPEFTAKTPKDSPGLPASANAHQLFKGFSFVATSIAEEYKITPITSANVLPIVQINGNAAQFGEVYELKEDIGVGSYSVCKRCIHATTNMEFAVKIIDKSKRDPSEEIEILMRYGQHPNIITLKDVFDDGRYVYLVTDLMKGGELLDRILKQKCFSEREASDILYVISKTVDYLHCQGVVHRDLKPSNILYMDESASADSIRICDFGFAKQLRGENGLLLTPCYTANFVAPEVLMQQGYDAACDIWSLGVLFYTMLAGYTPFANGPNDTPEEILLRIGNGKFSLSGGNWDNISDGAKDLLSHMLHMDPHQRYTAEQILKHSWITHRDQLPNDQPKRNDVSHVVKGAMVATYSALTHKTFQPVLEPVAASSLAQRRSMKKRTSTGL

## COc1cc(N(C)c2ccnc3ccc(C(F)(F)F)cc23)cc(OC)c1OC
[1]
  % binding: 74%
[2]
  % binding: 71%

## Nc1cnc(N2CCc3cc(S(=O)(=O)Nc4c(F)cc(Cl)cc4F)cc(N4CCCC4=O)c32)nc1 [TP-020n]
[3]
  % of inhibition: -1.24%

## Cc1cc([C@@H](C)Nc2ccccc2C(=O)O)c2nc(N3CCOCC3)cc(=O)n2c1 [AZD-6482]
[4]
  % of control: 100%

## COc1cc(Nc2nc(C)cc(-c3cnn4nc(OC)ccc34)n2)cc(C(F)(F)F)c1
[5]
  % of control: 65%

## Cc1ccc(-c2ccc3c(ccc4sc5c(c43)NC[C@@H](C)NC5=O)n2)cn1
[6]
  % of inhibition: -23%
[7]
  % of inhibition: 3%

## N#Cc1cccc(-c2c[nH]c3ncnc(N4CCOCC4)c23)c1
[8]
  % of control: 80%

## CCc1cc(Nc2nccc(-c3c(-c4ccc(OC)c(C(=O)Nc5c(F)cccc5F)c4)nc4ccccn34)n2)c(OC)cc1N1CCC(N2CCN(S(C)(=O)=O)CC2)CC1
Insulin receptor
  % of inhibition: 69%

## CC[C@@H]1[C@H](F)C(=O)N[C@@H]1COc1nccc2cc(C(N)=O)c(OC)cc12 [ZIMLOVISERTIB]
[9]
  % of inhibition: 5%

## CCN(CC)CCCCNc1ncc2cc(-c3cc(OC)cc(OC)c3)c(NC(=O)NC(C)(C)C)nc2n1
[10]
  % of control: 100%
